# Non-standard residues stand in square brackets, D forms with d. Primed or numbered codes have the meaning given here. No end group written: not given here. PEG12′ = polyethylene glycol moiety of 12 units; PEG12(3) = not defined here
# Legend:
# [1] = test system: C2C12 cells; test: ATP levels in cultured C2C12 cells (CellTiter-Glo); format: cell-based, mouse; conditions: lovastatin 10 μM, positive control
# Description: The effect of the peptides on cellular metabolism can be assessed using an assay of ATP levels in cultured cells such as mouse myoblast cells. Peptides were initially prepared as 10 mM stock in DMSO, diluted to 1 mM in H2O, and used at a final concentration of 10 μM (0.1% DMSO). […] Lovastatin was prepared as 10 mM stock in 70% Ethanol and used at final concentration of 10 μM containing 0.1% DMSO. CellTiter-Glo® Assay kit was purchased from Promega (Madison, Wis.). […] C2C12 cells were grown in DMEM medium supplemented with 20% FBS with 100 IU/ml penicillin and 100 μg/ml streptomycin. […] C2C12 cells were seeded at 800 cells per well on 96-well plates. […] ATP levels were determined using a CellTiter-Glo Assay kit according to the manufacturer's instructions. Luminescence for each sample well on the plate was measured using a Cytation 3 plate reader (BioTek, Winooski, Vt.). Activity was calculated relative to 0.1% DMSO treated control. The relative standard deviation of the result for the 0.1% DMSO treated control was <5%. […] ATP levels for treatment with lovastatin (10 μM) were <50% of the 0.1% DMSO treated control value.
# [2] = test system: C2C12 cells; test: Cell proliferation in C2C12 cells (Cyquant DNA dye binding); format: cell-based, mouse; conditions: lovastatin 10 μM, growth arrest control
# Description: The effect of the peptides on cell proliferation was assessed using a DNA dye binding assay in cultured cells such as mouse myoblast cells. Peptides were initially prepared as 10 mM stock in DMSO, diluted to 1 mM in H2O, and added at a final concentration of 10 μM (0.1% DMSO). Lovastatin was used as a growth arrest control at final concentration of 10 μM. […] C2C12 cells were grown in DMEM supplemented with 20% FBS with 100 IU/ml penicillin and 100 μg/ml streptomycin. […] C2C12 cells were seeded at 800 cells per well on 96-well plates. […] Cell proliferation was determined using Cyquant Direct Nucleic Acid Stain (Thermo Fisher Scientific, Waltham, Mass.) according to the manufacturer's instructions. Fluorescence for each sample well on the plate was measured using a Cytation 3 plate reader at Ex/Em=495/535 nm (BioTek, Winooski, Vt.). Activity was calculated relative to 0.1% DMSO untreated control. The relative standard deviation for the lovastatin control was <27%. The cell proliferation for the lovastatin control was <25% of the value for untreated control.
# [3] = test system: C2C12 cells; test: Cellular ROS levels induced by TBHP in C2C12 cells (DCFDA); format: cell-based, mouse; conditions: sulforaphane 10 μM, protective control
# Description: The protective or synergistic effect of the peptides on cellular levels of reactive oxygen species (ROS) induced by oxidative stress can be assessed using an assay of ROS in cultured cells such as mouse myoblasts exposed to a suitable oxidative stress. Peptides were initially prepared as 10 mM stock in DMSO, diluted to 1 mM in H2O, and added at a final concentration of 10 μM (0.1% DMSO). […] TBHP was used at final concentration of 100 μM. Sulforaphane at final concentration of 10 μM was used as a protective control against TBHP induced ROS production. […] C2C12 cells were grown in DMEM supplemented with 20% FBS with 100 IU/ml penicillin and 100 μg/ml streptomycin. […] C2C12 cells were seeded at 7,500 cells per well on 96-well plates. […] After 18-20 hours of incubation the cells were loaded with DCFDA for 45 min. TBHP at 100 μM was then added to the appropriate wells for 1 hour. ROS activity was determined using a DCFDA Cellular ROS Detection Assay kit (Abcam, Cambridge, Mass.) according to the manufacturer's instructions. Fluorescence in each sample well on the plate was measured using a Cytation 3 plate reader at Ex/Em=485/535 nm (BioTek, Winooski, Vt.). Activity was calculated relative to TBHP control. The relative standard deviation of the sulforaphane control was <20%. The ROS level produced by the sulforaphane control in the presence of TBHP was 52% of the TBHP control.
# [4] = test system: 3T3-L1 adipocytes; test: Free fatty acid levels in cultured 3T3-L1 mouse adipocytes (Example 4, 25 μM); conditions: peptide 25 μM, 20-22 h then 3 h with isoproterenol 1 nM; relative to isoproterenol control
# Description: Mouse 3T3-L1 adipocytes were seeded at 3,000 cells per well in 96-well plates in Pre-adipocyte Medium (Zen-Bio, Durham, N.C.) and grown to confluence at 37° C. in a humidified atmosphere of 5% CO2/95% air. Two days after confluence, cells were placed in Adipocyte Differentiation Medium (Zen-Bio, Durham, N.C.) and cultured for three additional days at 37° C. in a humidified atmosphere of 5% CO2/95% air. The culture media was then replaced with Adipocyte Maintenance Medium (Zen-Bio) and the cells maintained for an additional 9-12 days at 37° C. in a humidified atmosphere of 5% CO2/95% air with partial medium replacement every other day. Following 12-15 days' differentiation, test peptides were added to a final concentration of 25 μM and incubated for 20-22 hours in Adipocyte Maintenance Medium. After 20-22 hours, isoproterenol (1 nM) was added to all wells except untreated controls and test peptides were replenished. Cells were incubated for a further 3 hours in Assay Buffer (Zen-Bio). Free fatty acid concentrations in the media were determined using a Free Fatty Acid Assay Kit (Zen-Bio) according to the manufacturer's instructions using a plate reader (540 nm). Absorbance values were corrected for untreated background and expressed relative to isoproterenol treated cells. Treatment with isoproterenol (1 nM) alone was used as the free fatty acid level stimulatory control.
# [5] = test system: Male DIO mice; test: Metabolic parameters in diet induced obese (DIO) mice, Example 20; format: in vivo, mouse; conditions: N = 8
# Description: Male C57BL/6 mice were maintained on a high fat diet for 18 weeks to develop diet induced obesity. Animals were randomized to treatment groups based on blood glucose levels and body weight. The peptides of the invention were administered to groups of male DIO mice once or twice daily by intraperitoneal injection at a dose of 5 mg/kg/dose for 8 to 10 days (N=8 animals per treatment group). Additional groups of male DIO mice (n=8) received vehicle (water) alone administered once or twice daily by intraperitoneal injection. Body weight, blood glucose levels and food intake were monitored. Body mass distribution (fat vs lean) was determined by quantitative whole body NMR prior to dosing and at the end of dosing.
# [6] = test system: 3T3-L1 mouse adipocytes; test: Free fatty acid levels in cultured 3T3-L1 mouse adipocytes and insulin dependence (Example 17); format: cell-based; conditions: isoproterenol 0.1 nM; for Free Fatty Acid Levels, Percent of Isoproterenol Control Activity No Insulin: peptide 10 μM alone, relative to isoproterenol treated cells; for Free Fatty Acid Levels, Percent of Isoproterenol Control Activity With Insulin: peptide 10 μM with 0.25 nM insulin, relative to 0.25 nM insulin treated cells
# Description: The effect of the peptides on fatty acid metabolism can be assessed using an assay to monitor free fatty acid levels produced by cultured cells such as mouse adipocytes. […] Following 3 h incubation, conditioned medium from each well was transferred to a fresh 96-well plate. […] Absorbance values were expressed as percent control activity relative to 0.1 nM isoproterenol treated cells (no insulin) for 10 μM peptide alone or 0.25 nM insulin treated cells (with insulin) for 10 μM peptide in presence of 0.25 nM insulin. […] Data are presented as averages values from 2-3 independent experiments with each data point performed in triplicate.
# [7] = test system: H4-IIE cells; test: Glucose production in cultured H4-IIE cells and insulin dependence; format: cell-based, rat; conditions: 24 h; for Glucose Production, Percent of Control Activity No Insulin: peptide 10 μM alone, relative to untreated cells; for Glucose Production, Percent of Control Activity With Insulin: peptide 10 μM with 800 μM insulin, relative to insulin treated cells
# Description: The effect of the peptides on glucose homeostasis can be assessed using an assay to monitor glucose production by cultured cells such as rat hepatocytes. […] Following 24 h incubation, conditioned medium from each well was transferred to a fresh 96-well plate. Glucose concentrations in the medium were determined using a Glucose Assay kit (Abcam; Cambridge, Mass.) according to the manufacturer's instructions; absorbance measured using a Cytation 3 plate reader at 570 nm (BioTek, Winooski, Vt.). […] Untreated cells were used as reference for maximal glucose production. […] Insulin at 800 μM was used as a modest inhibitor glucose production. […] Data are presented as averages values from 2-4 independent experiments with each data point performed in triplicate.
# [8] = test system: C2C12 cells; test: Glucose utilization in cultured C2C12 cells and insulin dependence; format: cell-based, mouse; conditions: 22 h; for Glucose Utilization, Percent of Control Activity No Insulin: peptide 10 μM alone, glucose in medium relative to untreated cells; for Glucose Utilization, Percent of Control Activity With Insulin: peptide 10 μM with 5-20 nM insulin, glucose in medium relative to insulin treated cells
# Source text: The effect of the peptides on glucose homeostasis can be assessed using an assay to monitor glucose utilization by cultured cells such as mouse myotubes. […] C2C12 mouse muscle cell line was purchased from Millipore Sigma (Saint Louis, Mo.). […] Three days after plating the medium was removed and with Differentiation Medium (DMEM/low glucose (1 g/L)+2% Horse Serum+antibiotics) added. […] After 5 days of differentiation, the medium was removed from myotube cultures and replaced with Assay Medium (DMEM/low glucose (1 g/L)+antibiotics). […] Following the 5 h incubation the medium was removed and fresh Assay Medium containing compounds added; 10 μM peptide in absence or presence of 5-20 nM insulin, or 1 mM metformin as a potent stimulator of glucose utilization. […] Following 22 h incubation, conditioned medium from each well was transferred to a fresh 96-well plate. Glucose concentrations in the medium were determined using a Glucose Assay kit (Abcam; Cambridge, Mass.) according to the manufacturer's instructions; absorbance measured using a Cytation 3 plate reader at 570 nm (BioTek, Winooski, Vt.). Absorbance values were expressed as percent control activity relative to untreated treated cells (no insulin) for 10 μM peptide alone or 5-20 nM insulin treated cells (with insulin) for 10 μM peptide in presence of 5-20 nM insulin. Untreated cells were used as reference for basal glucose utilization. The relative standard deviation from plate to plate of untreated control was <10%. Metformin at 1 mM was used as a potent control for increasing glucose utilization. Glucose levels for metformin (1 mM) treatment were <10% of the untreated control value. Data are presented as averages values from 2-3 independent experiments with each data point performed in triplicate.
# [9] = 5 mg/kg/dose BID intraperitoneal, 8 days
# [10] = 5 mg/kg/dose QD intraperitoneal, 10 days
compound,measurement,setting,value
"CC[C@H](C)C(=O)O[C@H]1C[C@@H](C)C=C2C=C[C@H](C)[C@H](CC[C@@H]3C[C@@H](O)CC(=O)O3)[C@H]21 [lovastatin, reference compound]","ATP levels, % of 0.1% DMSO treated control value",[1],< 50%
same,"Cell proliferation, % of value for untreated control",[2],< 25%
"C[S+]([O-])CCCCN=C=S (stereo not shown) [sulforaphane, reference compound]","ROS level in the presence of TBHP, % of TBHP control",[3],52%
4 (RRIIGIVFQCLCG) [compound 4],"Free Fatty Acid Levels, Percent of Control Value",[4],100%
RRMMGMVFQCLCG(dA) (RRMMGMVFQCLCG[dA]; cysteine pairing not given here) [SEQ ID NO: 8],Difference from Vehicle Control: Decrease from Baseline in Blood Glucose,[5]; [9],-14.3 mg/dL
same,Difference from Vehicle Control: Decrease from Baseline in Body Weight,[5]; [9],−5.66%
same,Difference from Vehicle Control: Decrease from Baseline in Fat Mass,[5]; [9],-2.15 g
RRMMGMVEQSLCG(dA) (RRMMGMVEQSLCG[dA]) [SEQ ID NO: 38],Difference from Vehicle Control: Decrease from Baseline in Blood Glucose,[5]; [10],-24.1 mg/dL
same,Difference from Vehicle Control: Decrease from Baseline in Body Weight,[5]; [10],−3.12%
3 (RRIIGIVFQCLCGL) [compound 3],"Free Fatty Acid Levels, Percent of Control Value",[4],89%
5 (RRIIGIVFQCLC) [compound 5],"Free Fatty Acid Levels, Percent of Control Value",[4],115%
21 (RRMMGMVFQCLCG[dA]K(PEG12′); cysteine pairing not given here) [compound 21],"Free Fatty Acid Levels, Percent of Isoproterenol Control Activity No Insulin",[6],109%
same,"Free Fatty Acid Levels, Percent of Isoproterenol Control Activity With Insulin",[6],59.1%
same,"Glucose Production, Percent of Control Activity No Insulin",[7],98.4%
same,"Glucose Production, Percent of Control Activity With Insulin",[7],72.7%
same,"Glucose Utilization, Percent of Control Activity No Insulin",[8],107.5%
same,"Glucose Utilization, Percent of Control Activity With Insulin",[8],86%
32 (RRMEVYQCLEG[dA]) [compound 32],"Free Fatty Acid Levels, Percent of Isoproterenol Control Activity No Insulin",[6],108%
same,"Free Fatty Acid Levels, Percent of Isoproterenol Control Activity With Insulin",[6],62.9%
same,"Glucose Production, Percent of Control Activity No Insulin",[7],99.5%
same,"Glucose Production, Percent of Control Activity With Insulin",[7],81.9%
same,"Glucose Utilization, Percent of Control Activity No Insulin",[8],103.8%
same,"Glucose Utilization, Percent of Control Activity With Insulin",[8],85.0%
RRMMGMVFQSLCG(dA) (RRMMGMVFQSLCG[dA]) [SEQ ID NO: 15],Difference from Vehicle Control: Decrease from Baseline in Blood Glucose,[5]; [10],-3.38 mg/dL
same,Difference from Vehicle Control: Decrease from Baseline in Body Weight,[5]; [10],−4.97%
same,Difference from Vehicle Control: Decrease from Baseline in Fat Mass,[5]; [10],-2.19 g
22 (RRMVYQCLCG[dA]; cysteine pairing not given here) [compound 22],"Free Fatty Acid Levels, Percent of Isoproterenol Control Activity No Insulin",[6],107%
same,"Free Fatty Acid Levels, Percent of Isoproterenol Control Activity With Insulin",[6],61.9%
same,"Glucose Production, Percent of Control Activity No Insulin",[7],109.8%
same,"Glucose Production, Percent of Control Activity With Insulin",[7],49.1%
same,"Glucose Utilization, Percent of Control Activity No Insulin",[8],100.9%
same,"Glucose Utilization, Percent of Control Activity With Insulin",[8],79.8%
20 (KRRMMGMVFQCLCGA; (1)..(1) PEG12; (15)..(15) d-Ala) [compound 20],"Free Fatty Acid Levels, Percent of Isoproterenol Control Activity No Insulin",[6],101%
same,"Free Fatty Acid Levels, Percent of Isoproterenol Control Activity With Insulin",[6],90.7%
same,"Glucose Production, Percent of Control Activity No Insulin",[7],98.4%
same,"Glucose Production, Percent of Control Activity With Insulin",[7],108.6%
same,"Glucose Utilization, Percent of Control Activity No Insulin",[8],108%
same,"Glucose Utilization, Percent of Control Activity With Insulin",[8],91%
(PEG12)KRRIIGIVFQCLCG(dA) ([PEG12(3)]KRRIIGIVFQCLCG[dA]; cysteine pairing not given here) [SEQ ID NO: 42],Difference from Vehicle Control: Decrease from Baseline in Blood Glucose,[5]; [10],-10.7 mg/dL
same,Difference from Vehicle Control: Decrease from Baseline in Body Weight,[5]; [10],−2.94%
(PEG12)KRRMMGMVFQCLCG(dA) (KRRMMGMVFQCLCGA; N-terminal PEG12; C-terminal D-alanine; (1)..(1) PEG12; (15)..(15) d-Ala) [SEQ ID NO: 20],Difference from Vehicle Control: Decrease from Baseline in Blood Glucose,[5]; [10],-0.75 mg/dL
same,Difference from Vehicle Control: Decrease from Baseline in Body Weight,[5]; [10],−3.59%
same,Difference from Vehicle Control: Decrease from Baseline in Fat Mass,[5]; [10],-1.78 g

# Reference: patent US20220324909A1, “THERAPEUTIC PEPTIDES” (COHBAR, INC., priority 2019, published 2022)
